Values of other authors in patent publication US10653698B2, “Methods of improving myocardial performance in Fontan patients using udenafil compositions” (priority 2014, dated 2020).

Tests used:
[1] = system: patients with Fontan circulation; settings: short term, once daily dosing; cited from earlier work
[2] = system: children and young adults with single-ventricle physiology after the Fontan operation; settings: Shabanian et al. 2013; cited from earlier work

SMILES	exercise capacity [1]	ventilatory efficiency and oxygen saturation [1]	ventricular systolic elastance [2]	ventriculo-arterial coupling [2]
CN1CC(=O)N2[C@H](c3ccc4c(c3)OCO4)c3[nH]c4ccccc4c3C[C@@H]2C1=O [tadalafil]	unchanged	improved	–	–
CCCc1nn(C)c2c(=O)[nH]c(-c3cc(S(=O)(=O)N4CCN(C)CC4)ccc3OCC)nc12 [sildenafil]	–	–	increased	improved
